Data reported in PubChem BioAssay AID1259407 (Chemical Carcinogenesis Research Information System (CCRIS), 2018).
Active and inactive are the calls of the source. The rule behind the calls is not given here.

System: CCRIS mutagenicity, Ames/micronucleus/aberration tests
Assay: CCRIS mutagenicity studies
Conditions: Test System: AMES SALMONELLA TYPHIMURIUM

Measured: mutagenic call

CCN(N=O)c1ccccc1
inactive: Strain/Indicator: TA98, Metabolic Activation: HAMSTER, LIVER, S-9, AROCLOR 1254, Method: PREINCUBATION inactive; negative | Strain/Indicator: TA98, Metabolic Activation: HAMSTER, LIVER, S-9, AROCLOR 1254, Method: STANDARD PLATE inactive; negative | Strain/Indicator: TA98, Metabolic Activation: HAMSTER, LIVER, S-9, Method: PREINCUBATION inactive; negative | Strain/Indicator: TA98, Metabolic Activation: HAMSTER, LIVER, S-9, Method: STANDARD PLATE inactive; negative | Strain/Indicator: TA98, Metabolic Activation: MOUSE, LIVER, S-9, AROCLOR 1254, Method: PREINCUBATION inactive; negative | Strain/Indicator: TA98, Metabolic Activation: MOUSE, LIVER, S-9, AROCLOR 1254, Method: STANDARD PLATE inactive; negative | Strain/Indicator: TA98, Metabolic Activation: MOUSE, LIVER, S-9, Method: PREINCUBATION inactive; negative | Strain/Indicator: TA98, Metabolic Activation: MOUSE, LIVER, S-9, Method: STANDARD PLATE inactive; negative | Strain/Indicator: TA98, Metabolic Activation: NONE, Method: PREINCUBATION inactive; negative | Strain/Indicator: TA98, Metabolic Activation: NONE, Method: STANDARD PLATE inactive; negative | Strain/Indicator: TA98, Metabolic Activation: RAT, LIVER, S-9, AROCLOR 1254, Method: PREINCUBATION inactive; negative | Strain/Indicator: TA98, Metabolic Activation: RAT, LIVER, S-9, AROCLOR 1254, Method: STANDARD PLATE inactive; negative | Strain/Indicator: TA98, Metabolic Activation: RAT, LIVER, S-9, Method: PREINCUBATION inactive; negative | Strain/Indicator: TA98, Metabolic Activation: RAT, LIVER, S-9, Method: STANDARD PLATE inactive; negative | Strain/Indicator: TA100, Metabolic Activation: HAMSTER, LIVER, S-9, AROCLOR 1254, Method: PREINCUBATION inactive; negative | Strain/Indicator: TA100, Metabolic Activation: HAMSTER, LIVER, S-9, AROCLOR 1254, Method: STANDARD PLATE inactive; negative | Strain/Indicator: TA100, Metabolic Activation: HAMSTER, LIVER, S-9, Method: PREINCUBATION inactive; negative | Strain/Indicator: TA100, Metabolic Activation: HAMSTER, LIVER, S-9, Method: STANDARD PLATE inactive; negative | Strain/Indicator: TA100, Metabolic Activation: MOUSE, LIVER, S-9, AROCLOR 1254, Method: PREINCUBATION inactive; negative | Strain/Indicator: TA100, Metabolic Activation: MOUSE, LIVER, S-9, AROCLOR 1254, Method: STANDARD PLATE inactive; negative | Strain/Indicator: TA100, Metabolic Activation: MOUSE, LIVER, S-9, Method: PREINCUBATION inactive; negative | Strain/Indicator: TA100, Metabolic Activation: MOUSE, LIVER, S-9, Method: STANDARD PLATE inactive; negative | Strain/Indicator: TA100, Metabolic Activation: NONE, Method: PREINCUBATION inactive; negative | Strain/Indicator: TA100, Metabolic Activation: NONE, Method: STANDARD PLATE inactive; negative | Strain/Indicator: TA100, Metabolic Activation: RAT, LIVER, S-9, AROCLOR 1254, Method: PREINCUBATION inactive; negative | Strain/Indicator: TA100, Metabolic Activation: RAT, LIVER, S-9, AROCLOR 1254, Method: STANDARD PLATE inactive; negative | Strain/Indicator: TA100, Metabolic Activation: RAT, LIVER, S-9, Method: PREINCUBATION inactive; negative | Strain/Indicator: TA100, Metabolic Activation: RAT, LIVER, S-9, Method: STANDARD PLATE inactive; negative | Strain/Indicator: TA1535, Metabolic Activation: HAMSTER, LIVER, S-9, AROCLOR 1254, Method: PREINCUBATION inactive; negative | Strain/Indicator: TA1535, Metabolic Activation: HAMSTER, LIVER, S-9, AROCLOR 1254, Method: STANDARD PLATE inactive; negative | Strain/Indicator: TA1535, Metabolic Activation: HAMSTER, LIVER, S-9, Method: PREINCUBATION inactive; negative | Strain/Indicator: TA1535, Metabolic Activation: HAMSTER, LIVER, S-9, Method: STANDARD PLATE inactive; negative | Strain/Indicator: TA1535, Metabolic Activation: MOUSE, LIVER, S-9, AROCLOR 1254, Method: PREINCUBATION inactive; negative | Strain/Indicator: TA1535, Metabolic Activation: MOUSE, LIVER, S-9, AROCLOR 1254, Method: STANDARD PLATE inactive; negative | Strain/Indicator: TA1535, Metabolic Activation: MOUSE, LIVER, S-9, Method: PREINCUBATION inactive; negative | Strain/Indicator: TA1535, Metabolic Activation: MOUSE, LIVER, S-9, Method: STANDARD PLATE inactive; negative | Strain/Indicator: TA1535, Metabolic Activation: NONE, Method: PREINCUBATION inactive; negative | Strain/Indicator: TA1535, Metabolic Activation: NONE, Method: STANDARD PLATE inactive; negative | Strain/Indicator: TA1535, Metabolic Activation: RAT, LIVER, S-9, AROCLOR 1254, Method: PREINCUBATION inactive; negative | Strain/Indicator: TA1535, Metabolic Activation: RAT, LIVER, S-9, AROCLOR 1254, Method: STANDARD PLATE inactive; negative | Strain/Indicator: TA1535, Metabolic Activation: RAT, LIVER, S-9, Method: PREINCUBATION inactive; negative | Strain/Indicator: TA1535, Metabolic Activation: RAT, LIVER, S-9, Method: STANDARD PLATE inactive; negative
